{"source": "paper PMC9816194", "about": "“Use of the head-twitch response to investigate the structure–activity relationships of 4-thio-substituted 2,5-dimethoxyphenylalkylamines” (Psychopharmacology, 2022)", "key": {"mice": {"system": "mice", "settings": "ref Fantegrossi et al. 2005, cited from earlier work"}, "humans": {"system": "humans", "settings": "p.o.; ref Shulgin and Shulgin 1991; Trachsel et al. 2013; cited from earlier work"}, "rats [1]": {"system": "rats", "set-up": "method as in Eshleman et al. 2014; Fantegrossi et al. 2005", "settings": "rats trained to discriminate LSD or DMT; ref Eshleman et al. 2014; Fantegrossi et al. 2005; cited from earlier work"}, "male C57BL/6 J mice [2]": {"system": "male C57BL/6 J mice", "assay": "Head-twitch response (HTR), magnetometer coil recording", "type": "in vivo", "settings": "for HTR Counts (Mean ± SEM): 30 min; for ED50: Mus musculus, 0.5 h, HTR, 30 min recording, male C57BL/6 J mice; for ED50 / effect on HTR counts (in words): IP; for maximum number of head twitches (mean ± SEM): during the 30-min assessment period; for effect on HTR counts (in words): versus vehicle/baseline", "protocol": "Male C57BL/6 J mice (Jackson Laboratory, Bar Harbor, ME) were housed in a vivarium at the University of California San Diego (UCSD), which is an AAALAC-approved animal facility that complies with Federal and State requirements for care and treatment of laboratory animals. The mice (6–8 weeks old) were housed in a climate-controlled room with a reversed light-cycle (lights on at 19:00 h, off at 07:00 h) up to 4 animals per cage. Food and water were provided ad libitum, except during behavioral testing which occurred between 10:00 and 18:00 h. All experiments were conducted according to NIH guidelines and were approved by the UCSD animal care committee.\nHead movement was recorded using a head-mounted magnet and a magnetometer coil (Halberstadt and Geyer [2013]). Briefly, mice were anesthetized, a small incision was made in the scalp, and a neodymium magnet was attached to the dorsal surface of the cranium using dental cement. Following a 1–2-week recovery period, behavioral experiments were conducted in a well-lit room with at least 7 days between sessions to avoid any carryover effects. Mice were treated with vehicle or test compound and then placed in a glass cylinder surrounded by a magnetometer coil and activity was recorded for 30 min. All test substances were administered IP dissolved in saline using an injection volume of 5 mL/kg. Coil voltage was filtered (5–10 kHz lowpass), digitized (20 kHz sampling rate), and saved to disk using a Powerlab/8SP with LabChart v 7.3.2 (ADInstruments, Colorado Springs, CO). To detect head twitches, events in the recordings were converted into scalograms using a wavelet transform and then the images were classified using a multistage approach combining the deep convolutional neural network (CNN) ResNet-50 with a support vector machine (SVM) algorithm (Halberstadt [2020]). HTR counts were analyzed using a one-way Welch analysis of variance (ANOVA). Post hoc pairwise comparisons were performed using Dunnett’s test. […] Median effective doses (ED50 values) and 95% confidence intervals were calculated using nonlinear regression (Prism ver. 9.0.2, GraphPad Software Inc, San Diego, CA, USA)."}, "rats [3]": {"system": "rats", "set-up": "method as in Khorana et al. 2004; Li et al. 2010, 2008", "settings": "ref Khorana et al. 2004, Li et al. 2010, 2008; cited from earlier work"}, "human 5-HT2A receptor [4]": {"target": "T1, human 5-HT2A receptor (Homo sapiens, UniProt P28223)", "T1 sequence (P28223 whole entry)": "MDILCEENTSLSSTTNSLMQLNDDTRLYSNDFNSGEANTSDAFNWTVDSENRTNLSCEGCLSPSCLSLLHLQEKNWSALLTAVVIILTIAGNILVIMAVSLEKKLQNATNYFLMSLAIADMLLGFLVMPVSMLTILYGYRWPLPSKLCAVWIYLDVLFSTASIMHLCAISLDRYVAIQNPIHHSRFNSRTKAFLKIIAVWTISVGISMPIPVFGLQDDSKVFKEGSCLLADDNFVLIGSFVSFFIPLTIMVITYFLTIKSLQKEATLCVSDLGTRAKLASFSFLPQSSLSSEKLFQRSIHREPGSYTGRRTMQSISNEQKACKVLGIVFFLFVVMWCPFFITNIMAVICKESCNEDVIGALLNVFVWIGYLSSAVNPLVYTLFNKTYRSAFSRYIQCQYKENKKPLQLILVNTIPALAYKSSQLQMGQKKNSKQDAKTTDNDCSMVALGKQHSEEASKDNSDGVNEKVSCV", "set-up": "expressed in transfected cells; host or cells: HEK 293 (transient), membrane preparations", "settings": "read-out: 5-HT2A Ki, [3H]ketanserin, cited from earlier work"}, "monkeys": {"system": "monkeys", "set-up": "method as in Khorana et al. 2004; Li et al. 2010, 2008", "settings": "ref Khorana et al. 2004, Li et al. 2010, 2008; cited from earlier work"}, "human 5-HT2A receptor [5]": {"target": "T1, human 5-HT2A receptor", "set-up": "expressed in transfected cells; host or cells: HEK 293 (transient); method as in Luethi et al. 2018", "settings": "5-HT2A calcium flux assays; ref Luethi et al. 2018; cited from earlier work"}, "male C57BL/6 J mice [6]": {"system": "male C57BL/6 J mice", "set-up": "method as in Halberstadt et al. (2019a)", "settings": "HTR, previous experiment using similar methods; ref Halberstadt et al. (2019a); cited from earlier work"}, "[7]": {"settings": "read-out: ED50 µmol/kg (95% CI)"}}, "note": "Read-outs that look alike come from different tables or passages of the source."}
{"smiles": "CCCSc1cc(OC)c(CCN)cc1OC.Cl", "note": "[Compound 2C-T-7, 2,5-dimethoxy-4-n-propylthiophenethylamine hydrochloride]", "values": [{"measurement": "HTR after pretreatment with 5-HT2A antagonist M100907 (in words)", "setting": "mice; mice pretreated with M100907", "result": "blocked"}, {"measurement": "induction of HTR (in words)", "setting": "mice; mice", "result": "induce the head-twitch response"}, {"measurement": "Human active dose range", "setting": "humans", "result": "10 to 30", "unit": "mg"}, {"measurement": "substitution for training drug (in words)", "setting": "rats [1]", "result": "partial generalization"}, {"measurement": "HTR Counts (Mean ± SEM)", "setting": "male C57BL/6 J mice [2]; 0.1 mg/kg IP", "result": "11.8 ± 1.3"}, {"measurement": "HTR Counts (Mean ± SEM)", "setting": "male C57BL/6 J mice [2]; 0.3 mg/kg IP", "result": "18.4 ± 3.5"}, {"measurement": "HTR Counts (Mean ± SEM)", "setting": "male C57BL/6 J mice [2]; 1 mg/kg IP", "result": "70.2 ± 10.6"}, {"measurement": "HTR Counts (Mean ± SEM)", "setting": "male C57BL/6 J mice [2]; 3 mg/kg IP", "result": "58.6 ± 9.7"}, {"measurement": "ED50", "setting": "male C57BL/6 J mice [2]; [7]", "result": 2.12, "unit": "µmol/kg"}, {"measurement": "ED50", "setting": "male C57BL/6 J mice [2]; read-out: ED50 mg/kg (95% CI)", "result": 0.62, "unit": "mg/kg"}, {"measurement": "maximum number of head twitches (mean ± SEM)", "setting": "male C57BL/6 J mice [2]", "result": "70.2 ± 10.6"}, {"measurement": "effects in DOM-trained animals (in words)", "setting": "rats [3]", "result": "hallucinogen-like effects"}, {"measurement": "Ki", "setting": "human 5-HT2A receptor [4]; ref Luethi et al. (2018)", "result": 5.3, "unit": "nM"}, {"measurement": "effects in DOM-trained animals (in words)", "setting": "monkeys", "result": "hallucinogen-like effects"}]}
{"smiles": "COc1cc(SCc2ccccc2)c(OC)cc1CCN.Cl", "note": "[Compound 2C-T-27, 4-benzylthio-2,5-dimethoxyphenethylamine hydrochloride]", "values": [{"measurement": "HTR Counts (Mean ± SEM)", "setting": "male C57BL/6 J mice [2]; 1.5 mg/kg IP", "result": "6.0 ± 1.6"}, {"measurement": "HTR Counts (Mean ± SEM)", "setting": "male C57BL/6 J mice [2]; 3 mg/kg IP", "result": "9.0 ± 0.8"}, {"measurement": "HTR Counts (Mean ± SEM)", "setting": "male C57BL/6 J mice [2]; 6 mg/kg IP", "result": "12.8 ± 2.0"}, {"measurement": "HTR Counts (Mean ± SEM)", "setting": "male C57BL/6 J mice [2]; 12 mg/kg IP", "result": "10.8 ± 3.6"}, {"measurement": "HTR Counts (Mean ± SEM)", "setting": "male C57BL/6 J mice [2]; 24 mg/kg IP", "result": "5.4 ± 2.0"}, {"measurement": "ED50", "setting": "male C57BL/6 J mice [2]; [7]", "result": 7.3, "unit": "µmol/kg"}, {"measurement": "ED50", "setting": "male C57BL/6 J mice [2]; read-out: ED50 mg/kg (95% CI)", "result": 2.48, "unit": "mg/kg"}, {"measurement": "effect on HTR counts (in words)", "setting": "male C57BL/6 J mice [2]", "result": "relatively weak"}, {"measurement": "5-HT2A agonist efficacy (in words)", "setting": "human 5-HT2A receptor [5]", "result": "low efficacy partial agonists"}, {"measurement": "Ki", "setting": "human 5-HT2A receptor [4]; ref Luethi et al. (2018)", "result": 1.6, "unit": "nM"}]}
{"smiles": "CCSc1cc(OC)c(CCN)cc1OC.Cl", "note": "[Compound 2C-T-2, 2,5-dimethoxy-4-ethylthiophenethylamine hydrochloride]", "values": [{"measurement": "substitution for training drug (in words)", "setting": "rats [1]", "result": "partial generalization"}, {"measurement": "HTR Counts (Mean ± SEM)", "setting": "male C57BL/6 J mice [2]; 0.1 mg/kg IP", "result": "12.2 ± 1.9"}, {"measurement": "HTR Counts (Mean ± SEM)", "setting": "male C57BL/6 J mice [2]; 0.3 mg/kg IP", "result": "28.4 ± 4.7"}, {"measurement": "HTR Counts (Mean ± SEM)", "setting": "male C57BL/6 J mice [2]; 1 mg/kg IP", "result": "65.2 ± 5.9"}, {"measurement": "HTR Counts (Mean ± SEM)", "setting": "male C57BL/6 J mice [2]; 3 mg/kg IP", "result": "36.8 ± 11.5"}, {"measurement": "ED50", "setting": "male C57BL/6 J mice [2]; [7]", "result": 1.44, "unit": "µmol/kg"}, {"measurement": "ED50", "setting": "male C57BL/6 J mice [2]; read-out: ED50 mg/kg (95% CI)", "result": 0.4, "unit": "mg/kg"}, {"measurement": "maximum number of head twitches (mean ± SEM)", "setting": "male C57BL/6 J mice [2]", "result": "65.2 ± 5.9"}, {"measurement": "Ki", "setting": "human 5-HT2A receptor [4]; ref Rickli et al. (2015)", "result": 9, "unit": "nM"}]}
{"smiles": "COc1cc(OC)c(OC)cc1CC(C)N", "note": "(stereo not drawn) [TMA-2, 2,4,5-trimethoxyamphetamine]", "values": [{"measurement": "ED50 µmol/kg (95% CI)", "setting": "male C57BL/6 J mice [6]", "result": "12.4 (8.6–17.8) ^[1] µmol/kg"}, {"measurement": "ED50 mg/kg (95% CI)", "setting": "male C57BL/6 J mice [6]", "result": "2.79 (1.94–4.01) ^[1] mg/kg"}]}
{"smiles": "COc1cccc(CSc2cc(OC)c(CCN)cc2OC)c1.Cl", "note": "[Compound 2C-T-33, 2,5-dimethoxy-4-(3-methoxybenzylthio)phenethylamine hydrochloride]", "values": [{"measurement": "HTR Counts (Mean ± SEM)", "setting": "male C57BL/6 J mice [2]; 0.3 mg/kg IP", "result": "8.6 ± 2.2"}, {"measurement": "HTR Counts (Mean ± SEM)", "setting": "male C57BL/6 J mice [2]; 1 mg/kg IP", "result": "5.0 ± 2.8"}, {"measurement": "HTR Counts (Mean ± SEM)", "setting": "male C57BL/6 J mice [2]; 3 mg/kg IP", "result": "9.6 ± 1.7"}, {"measurement": "HTR Counts (Mean ± SEM)", "setting": "male C57BL/6 J mice [2]; 10 mg/kg IP", "result": "7.8 ± 0.8"}, {"measurement": "effect on HTR counts (in words)", "setting": "male C57BL/6 J mice [2]", "result": "did not produce a significant increase in HTR counts"}, {"measurement": "5-HT2A agonist efficacy (in words)", "setting": "human 5-HT2A receptor [5]", "result": "low efficacy partial agonists"}, {"measurement": "Ki", "setting": "human 5-HT2A receptor [4]; ref Luethi et al. (2018)", "result": 1.7, "unit": "nM"}]}
